Experiment [1] has as its system cranial nerve glioma cell U87. Description: Antiproliferative activity against cranial nerve glioma cell U87. The class given is cell-based. Particulars: Homo sapiens, U-87 MG; U87 cells; read-out: concentration at which half of the tumor cells are killed. From the text: FIG. 14 is an antiproliferative activity test diagram of compound 8, compound 11, compound 13, and compound 21 against a cranial nerve glioma cell U87.

For another experiment, the target named is T1, hexokinase 2 (HK2) (Homo sapiens, UniProt P52789).
T1 sequence (P52789 1-917): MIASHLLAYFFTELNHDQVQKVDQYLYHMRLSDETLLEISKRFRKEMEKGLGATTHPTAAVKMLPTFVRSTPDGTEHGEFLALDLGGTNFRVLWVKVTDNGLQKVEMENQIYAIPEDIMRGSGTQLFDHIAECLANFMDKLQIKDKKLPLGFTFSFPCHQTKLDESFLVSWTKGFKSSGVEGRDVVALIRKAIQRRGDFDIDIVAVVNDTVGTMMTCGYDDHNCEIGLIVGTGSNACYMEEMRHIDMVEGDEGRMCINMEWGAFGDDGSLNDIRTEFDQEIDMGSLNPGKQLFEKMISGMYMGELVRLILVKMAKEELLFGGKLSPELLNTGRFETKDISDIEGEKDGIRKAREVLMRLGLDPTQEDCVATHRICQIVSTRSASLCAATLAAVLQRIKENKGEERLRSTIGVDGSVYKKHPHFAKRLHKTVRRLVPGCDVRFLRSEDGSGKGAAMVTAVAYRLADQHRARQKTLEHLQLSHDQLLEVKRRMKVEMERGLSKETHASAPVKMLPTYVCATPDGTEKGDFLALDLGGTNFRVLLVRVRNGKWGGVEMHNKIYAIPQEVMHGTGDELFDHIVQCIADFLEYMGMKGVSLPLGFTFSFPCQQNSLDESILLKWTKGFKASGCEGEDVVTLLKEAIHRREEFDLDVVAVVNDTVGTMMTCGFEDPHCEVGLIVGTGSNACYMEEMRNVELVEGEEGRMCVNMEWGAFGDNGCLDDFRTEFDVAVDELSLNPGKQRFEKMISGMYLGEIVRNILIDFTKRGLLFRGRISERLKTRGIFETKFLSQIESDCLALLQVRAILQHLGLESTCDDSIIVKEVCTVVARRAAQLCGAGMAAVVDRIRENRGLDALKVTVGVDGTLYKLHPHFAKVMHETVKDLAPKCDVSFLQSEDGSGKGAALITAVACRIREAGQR
Description: HK2 activity test on GLMSD platform (graphite dots MALDI-MS). The class given is biochemical. How it is done: GDs were dispersed in water at a concentration of 1 mg/mL as a matrix solution to be used. A sample was prepared by using a quick-drying method: firstly, 1 μL of matrix solution was dropped onto a target plate, and after natural drying at a room temperature in a […], 1 μL of sample to be analyzed was dropped onto a surface of the dried matrix, and after the sample was naturally dried, mass spectrometry was directly performed:
An instrument in the MALDI-MS was a Bruker Ultraflex III TOF/TOF mass spectrometer, which was mainly in a reflection positive and negative ion mode. Nd of 355 nm for instrument parameter: YAG laser had laser energy of 30% corresponding to 57 μJ per pulse (laser pulse duration: 3 ns), a laser spot size was about 50-100 μm, each sample was repeatedly tested four times, and 3000 laser spots were accumulated in each mass spectrum. All samples were measured under the same instrumental conditions.
an inhibition rate=(1−B/A)×100%, where • A was: a glucose concentration in a pre-reaction solution without the inhibitor-a glucose concentration in a post-reaction solution without the inhibitor, • B was: a glucose concentration in a pre-reaction solution with the inhibitor-a glucose concentration in a post-reaction solution with the inhibitor, and • a glucose concentration in the reaction solution=(mass spectrum signal strength of [glucose+Na]+/mass spectrum signal strength of [glucose-1-^13C+Na]+)×known concentration of glucose-1-^13C.

In the next experiment the test system is U87 cells. Description: Flow cytometry analysis of U87 cell apoptosis (Annexin V-FITC/PI staining). The class given is cell-based. The following applies: 20 μM, 24 hours. How it is done:
In a dulbecco's modified eagle medium (DMEM), 5×10^5 U87 cells were inoculated into a 24-hole plate. After culturing for 24 hours, compound 27 (final concentration 20 μM) was directly added to a cell growth medium, incubated at 37° C. for 24 hours, briefly digested with trypsin, washed twice with cold PBS, centrifuged (2000 rpm, 5 min) and washed twice with cold PBS after a supernatant culture medium was discarded. The cells (1×10^5 cells/mL) were resuspended with a 400 μL of buffer solution (1×). 5 μL of Annexin V-FITC was added to the cell suspension and cultured at 4° C. for 15 minutes. Then, the cells were gently mixed with another dye propidium iodide (PI) (10 μL). The cells were collected for flow cytometry analysis. Data analysis was performed by using a CFLow Plus (Accuri Cytometers).
In order to further confirm the occurrence of apoptosis, the applicant tested the exposed phosphatidylserine by using an annexin V/propidium iodide double staining method, and observed a cell membrane damage phenomenon.

pIC50: −log10 of the molar value.

Consider `CCOc1ccc(C(=O)NCCCN(C)CCCN(C)Cc2ccccc2)cc1Br` [compound 27], for which the pIC50 in experiment [1] is 4.95. For the same compound, on hexokinase 2 (HK2) (inhibition curves FIGS. 3-7, colorimetric kit and GLMSD), the “inhibitory effect on the HK2” value is “good inhibitory effects”. Moreover, at hexokinase 2 (HK2) (small-molecule concentration of the inhibitor 20 μM, GLMSD, read-out: inhibition rate of HK2 activity), the inhibition at 20 µM was 31%. Further, in the experiment on U87 cells, the “early (Annexin+/PI−) apoptotic cells” value is 31.2% and the “late (Annexin+/PI+) apoptotic cells” value is 30.6%.

For the origin of these results see US20230414571A1, “APPLICATION OF SMALL-MOLECULE COMPOUND IN PREPARATION OF ANTITUMOR DRUG” (SOOCHOW UNIVERSITY, priority 2021, published 2023).
